Tests used:
[1] = molecular target: T1, GABAA receptor-Cl- channel complex composed of rat α1, β2, γ2 subunits (Rattus norvegicus, UniProt P18508+P62813+P63138); test: whole-cell patch clamp of GABA-mediated Cl- currents in transfected HEK 293 cells; assay type: cell-based; conditions: cell line 2C-1C, HEK 293, holding potential -60 mV
T1 construct: expressed in transfected cells
Description: GABAA receptors are gated channels which, upon binding to BAGA, allow chlorine ions to pass into the cell. In the presence of benzodiazepines. The GABAA receptor will allow GABA to open the channel and let more chlorine ion into the cell if the benzodiazepine is an agonist or less chlorine ions into the cell if the benzodiazepine is an inverse agonist. The amount of chlorine ions that pass through the GABAA receptor can be directly measured using the patch clamp assay. This assay measures the charge flow into and out of an electrode sealed on the surface of a cell. The flow of chlorine ions entering the cell is measured as a function of the current that leaves the cell to maintain electrical equilibrium within the cell as the gate opens. […] The range of sensitivity of the whole cell patch clamp assay is about 1000 pA and allows for the distinguishing of currents of between 2 and 5 pA.
These tests were carried out by patch-clamp electrophysiology of whole cells. The whole-cell configuration of patch clamp technique was used to record the GABA-mediated Cl-currents in human embryonic kidney cells transfected with GABAA receptor subunits. Patch pipettes were made of borosilicate glass with a resistance of 0.5 to 2 megohms. The cell was bathed in the buffer medium containing (mM) NaCl 135, KCl 5, MgCl2 1, CaCl2 1.8 and Hepes 5, pH 7.2. […]

[2] = system: recombinant receptors composed of α6 -, β2 - and β2-subunits; conditions: transiently expressed in cultured mammalian cells; cited from earlier work
[3] = system: α1 - and β1 -subunits of the bovine brain GABAA receptor; conditions: CHO cells, dexamethasone-inducible promoter; cited from earlier work

T1 sequence (P62813 28-455): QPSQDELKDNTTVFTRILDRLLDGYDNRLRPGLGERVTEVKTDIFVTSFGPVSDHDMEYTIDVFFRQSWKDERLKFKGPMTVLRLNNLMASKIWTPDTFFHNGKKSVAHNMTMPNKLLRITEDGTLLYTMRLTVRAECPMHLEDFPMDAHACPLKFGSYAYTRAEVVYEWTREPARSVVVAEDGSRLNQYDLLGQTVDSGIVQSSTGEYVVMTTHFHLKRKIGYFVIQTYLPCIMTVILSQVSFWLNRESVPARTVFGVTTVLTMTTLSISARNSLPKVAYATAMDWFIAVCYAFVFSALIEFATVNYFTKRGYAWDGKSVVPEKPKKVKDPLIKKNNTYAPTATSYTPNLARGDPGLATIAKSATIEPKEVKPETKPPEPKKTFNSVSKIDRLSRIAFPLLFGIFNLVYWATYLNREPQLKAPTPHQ
T1 sequence (P63138 26-474): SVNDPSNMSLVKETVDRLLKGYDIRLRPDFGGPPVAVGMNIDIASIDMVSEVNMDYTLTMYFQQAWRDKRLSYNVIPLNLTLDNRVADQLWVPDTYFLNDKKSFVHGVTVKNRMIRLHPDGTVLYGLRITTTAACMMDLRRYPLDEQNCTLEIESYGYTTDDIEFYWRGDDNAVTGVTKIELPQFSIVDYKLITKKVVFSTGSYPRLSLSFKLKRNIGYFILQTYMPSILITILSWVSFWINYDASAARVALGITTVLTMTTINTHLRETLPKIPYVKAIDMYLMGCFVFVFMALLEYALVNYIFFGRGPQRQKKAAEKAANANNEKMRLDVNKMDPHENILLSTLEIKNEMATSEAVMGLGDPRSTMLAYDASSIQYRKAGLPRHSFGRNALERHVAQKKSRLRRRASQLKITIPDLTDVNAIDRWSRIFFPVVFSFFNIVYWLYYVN
T1 sequence (P18508 39-466): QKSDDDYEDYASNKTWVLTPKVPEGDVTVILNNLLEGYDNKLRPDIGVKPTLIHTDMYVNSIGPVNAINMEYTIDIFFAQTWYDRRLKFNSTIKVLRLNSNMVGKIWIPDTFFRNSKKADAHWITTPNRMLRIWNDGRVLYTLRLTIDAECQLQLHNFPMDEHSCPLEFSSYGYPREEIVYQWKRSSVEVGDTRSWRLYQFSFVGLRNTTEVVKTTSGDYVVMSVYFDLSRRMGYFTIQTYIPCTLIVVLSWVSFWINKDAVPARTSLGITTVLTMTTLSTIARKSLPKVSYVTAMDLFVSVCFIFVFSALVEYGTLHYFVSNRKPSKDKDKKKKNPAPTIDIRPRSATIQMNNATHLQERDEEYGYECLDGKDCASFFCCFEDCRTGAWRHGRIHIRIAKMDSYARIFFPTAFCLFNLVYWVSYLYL

Row | Molecule | binding affinity to recombinant receptors [2] | effect on current response of α1β1 GABAA receptors [3] | also measured
1 | NCCCC(=O)O [GABA, γ-Aminobutyric acid] |  |  | response of cells to drug (Cl- current) [1]: responsive
2 | CCOC(=O)c1ncn2c1CN(C)C(=O)c1cc(F)ccc1-2 [Ro15-1788] | high affinity |  | 
3 | CCOC(=O)c1ncn2c1CN(C)C(=O)c1cc(N=[N+]=[N-])ccc1-2 [Ro15-4513] | high affinity |  | 
4 | CN1CCc2cc3c(cc2[C@H]1[C@@H]1OC(=O)c2c1ccc1c2OCO1)OCO3 [bicuculline] |  | reversibly blocked | 
5 | NCc1cc(=O)[nH]o1 [muscimol] | high affinity |  | 
6 | picrotoxin |  | reversibly blocked | 

Reference: patent US5166066A (priority 1991, dated 1992)
